Results: PubChem BioAssay AID489024 (Sanford-Burnham Center for Chemical Genomics, 2010)
The source made the active and inactive calls.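 Rule for the calls: active = compounds whose mean EC50, the dose giving half the maximal reporter activation, is at or below a set limit; inactive = the rest.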

Molecular target: CHO-CHOP luciferase reporter, UPR activation, luminescence
Assay: CHOP reporter induction, apoptotic UPR branch – CHO-CHOP cells, luciferase luminescence, confirmation (AID 489024);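 note: compounds added alone to reporter cells with no tunicamycin stress co-treatment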

Point of comparison: `OCCNc1nc(Nc2ccc(Br)cc2)nc2ccccc12`, EC50 8.18 µM. Against it:
- CCCCCCCCCCn1c2c(c(=N)c3c1CCC3)CCC2 — 1.7-fold higher, 14.1 µM
- Cc1ccc(NC(=O)Cn2ncc(Cl)c(Cl)c2=O)cc1S(=O)(=O)N1CCCCC1 — within 1.5-fold, 6.45 µM
- O=C(Nc1ccc(S(=O)(=O)N2CCCC2)cc1)c1ccc([N+](=O)[O-])o1 — 10-fold lower, 0.81 µM
- COc1cc(/C=C2\CC(C(C)(C)C)C/C(=C\c3cc(OC)c(OC)c(OC)c3)C2=O)cc(OC)c1OC (stereo not given) — within 1.5-fold, 6.19 µM
- O=C(CSc1nc2ccc(Nc3nc(N4CCOCC4)nc(N4CCOCC4)n3)cc2s1)Nc1ccccc1F — 1.8-fold higher, 14.7 µM
- Cc1cc(C(=O)CCl)c(C)n1Cc1ccco1 — within 1.5-fold, 7.35 µM
- COc1ccc(C(=O)/C=C2/C(=O)Nc3ccccc32)c(OC)c1 — within 1.5-fold, 8.48 µM
- CCOC(=O)C(=Cc1ccc(-n2ccnc2)cc1)C(=O)OCC — within 1.5-fold, 9.57 µM
- Brc1ccc(-c2ccc(/C=N/Nc3nncc(-c4ccccc4)n3)o2)cc1 — 2.3-fold higher, 19 µM
- Cc1cc(C(=O)CCl)c(C)n1-c1cccc([N+](=O)[O-])c1 — within 1.5-fold, 8.64 µM
- O=[N+]([O-])c1ccccc1S(=O)(=O)Nc1cccc2cccnc12 — within 1.5-fold, 7.67 µM
- CC(C)N1C/C(=C/c2ccsc2)C(=O)/C(=C/c2ccsc2)C1 — within 1.5-fold, 7.08 µM
- Cc1ccc(NC(=O)c2ccc([N+](=O)[O-])o2)cc1S(=O)(=O)N1CCOCC1 — within 1.5-fold, 11.8 µM
- CCc1cccc2sc(N3CCN(C(=O)c4ccc([N+](=O)[O-])o4)CC3)nc12 — within 1.5-fold, 10.5 µM
- CCN(CC)c1ccc(C=C2C(=O)NC(=S)NC2=O)cc1 — within 1.5-fold, 11.9 µM
- CCCCCCCCCn1c2c(c(=N)c3c1CCC3)CCCC2 — within 1.5-fold, 11.3 µM
- C/C(=N/NC(=O)c1ccc(C(C)(C)C)cc1)c1ccccn1 — 2.8-fold lower, 2.88 µM
- O=Cc1ccc(O)c2ncccc12 — within 1.5-fold, 10.3 µM
- COc1cc(CN2CCN(c3cc(C)ccc3C)CC2)ccc1O — within 1.5-fold, 11.7 µM
- CN1CCN(Cc2cc(COCc3ccccc3)c3cccnc3c2O)CC1 — 1.6-fold higher, 12.8 µM
- COC(=O)C(=Cc1ccc(OCc2ccc([N+](=O)[O-])cc2)c(OC)c1)C(=O)OC — 1.5-fold lower, 5.43 µM
- Cc1ccccc1/C=C/C(=O)c1ccc([N+](=O)[O-])o1 — within 1.5-fold, 9.86 µM
- CCOC(=O)c1cnc(Nc2nc3ccccc3o2)nc1CSC(=S)N1CCCCC1 — 6.3-fold lower, 1.3 µM
- O=C1NC(=O)N(CCc2ccc(F)cc2)C(=O)/C1=C/C=C/c1ccccc1 — 1.7-fold lower, 4.74 µM

With `CCN(CC)S(=O)(=O)c1ccc(N/N=C(\C)c2ccc3c(c2)OCO3)c([N+](=O)[O-])c1` the EC50 was “inactive”.
For `Oc1ccc(-c2cn3ccccc3n2)cc1O`, the EC50 was “inactive”.
In the case of `Oc1ccc(/C=N/Nc2cc(N3CCOCC3)nc(N3CCOCC3)n2)cc1O`, the EC50 is reported as > 80 µM (inactive).
For `CCOC(=O)c1sc(NC(=S)NC(=O)c2ccccc2)c(C(=O)OCC)c1C`, the EC50 was > 80 µM (inactive).
In the case of `CCOc1cc(NC(=O)CCl)c(OCC)cc1NC(=O)CCl`, the EC50 is reported as “inactive”.
In the case of `Cc1ccc(C(=O)NC(C#N)=C(Cl)Cl)cc1`, the EC50 is reported as > 80 µM (inactive).
`CC1=C/C(=N\OC(=O)/C=C/c2ccccc2)C(C)=CC1=O` was tested, and the EC50 was > 80 µM (inactive).
`Clc1ccc(-n2nnnc2Sc2ncnc3sccc23)cc1` was tested, and the EC50 was > 80 µM (inactive).
`CCOC(=O)C(=Cc1ccc(F)cc1)C(=O)OCC` was tested, and the EC50 was > 80 µM (inactive).
`COc1ccc2cc1Oc1ccc(cc1)CC1c3c(cc(OC)c4c3Oc3cc5c(cc3O4)CCNC5C2)CCN1C` (stereo not given) was tested, and the EC50 was > 80 µM (inactive).
